Assays:
[1] = system: Fifteen Durum lines, each derived from a different M2 plant; test: Greenhouse Trial: all fifteen mutagenesis-derived lines; format: in vivo, Durum wheat; details: 100 and 160 g/ha imazamox
Description: (§1) Fifteen Durum lines, each derived from a different M2 plant, and two wild type durum lines were evaluated for tolerance to the imidazolinone herbicide imazamox at rates of 100 and 160 g/ha in a greenhouse trial. Evaluations of tolerance were made at 14 and 21 days after treatment. Injury was scored on a 0-9 scale, with 0 representing no injury and 9 plant death.
A rate of 35 g/ha imazamox is adequate to kill susceptible Durum wheat.

[2] = system: One hundred ten M3:4 durum lines derived from sixteen M2 plants; test: Field Trials (2): all tested M3:4 lines; format: in vivo, Durum wheat
From the text: (§2) One hundred ten M3:4 lines derived from sixteen M2 plants were screened at 71 g/ha and 160 g/ha imazamox. The number of M4 lines per M2 plant varied from one to twenty. Tolerance of M3:4 lines was compared to untreated plots of the same line as well as to treated plots of a wild-type cultivar from which some of them were derived.
(§3) All tested lines survived at both rates of herbicide treatment, whereas all plants of the wild type were killed at both rates. Based on comparison to the wild type line, all lines tested expressed considerable tolerance to the applied rates, particularly when looking at height reduction relative to untreated plots. A rate of 35 g/ha imazamox is adequate to kill susceptible durum wheat.

[3] = system: AHAS of M2-derived imidazolinone herbicide tolerant lines; test: In vitro AHAS activity, tolerant lines overall; format: biochemical, Durum wheat; details: highest concentration of imazamox (100 uM), 'generally'
From the text: The in vitro activity of AHAS enzyme extracted from the plant can be measured biochemically. […] Even at relatively low concentrations, AHAS activity falls off rapidly.
Table 3 also contains AHAS activity data for several M2-derived imidazolinone herbicide tolerant lines.

Durum line UTO7 = test: Greenhouse Trial: plant injury rating, imazamox; format: in vivo, Durum wheat; details: 0-9 scale, 0 = no injury, 9 = plant death
Description: as §1

Durum line UT16 = test: Greenhouse Trial: plant injury rating, imazamox; format: in vivo, Durum wheat; details: 0-9 scale, 0 = no injury, 9 = plant death
Description: as §1

Durum line UTO1 = test: Greenhouse Trial: plant injury rating, imazamox; format: in vivo, Durum wheat; details: 0-9 scale, 0 = no injury, 9 = plant death
Description: as §1

Durum line UT13 = test: Greenhouse Trial: plant injury rating, imazamox; format: in vivo, Durum wheat; details: 0-9 scale, 0 = no injury, 9 = plant death
Description: as §1

Durum line C119 = test: Greenhouse Trial: plant injury rating, imazamox; format: in vivo, Durum wheat; details: 0-9 scale, 0 = no injury, 9 = plant death
Description: as §1

Durum line UTO8 = test: Greenhouse Trial: plant injury rating, imazamox; format: in vivo, Durum wheat; details: 0-9 scale, 0 = no injury, 9 = plant death
Description: as §1

Durum line UT10 = test: Greenhouse Trial: plant injury rating, imazamox; format: in vivo, Durum wheat; details: 0-9 scale, 0 = no injury, 9 = plant death
Description: as §1

Durum line UT20 = test: Greenhouse Trial: plant injury rating, imazamox; format: in vivo, Durum wheat; details: 0-9 scale, 0 = no injury, 9 = plant death
Description: as §1

Durum line UTO5 = test: Greenhouse Trial: plant injury rating, imazamox; format: in vivo, Durum wheat; details: 0-9 scale, 0 = no injury, 9 = plant death
Description: as §1

Durum line UTO3 = test: Greenhouse Trial: plant injury rating, imazamox; format: in vivo, Durum wheat; details: 0-9 scale, 0 = no injury, 9 = plant death
Description: as §1

Durum line UT14 = test: Greenhouse Trial: plant injury rating, imazamox; format: in vivo, Durum wheat; details: 0-9 scale, 0 = no injury, 9 = plant death
Description: as §1

Durum line UT15 = test: Greenhouse Trial: plant injury rating, imazamox; format: in vivo, Durum wheat; details: 0-9 scale, 0 = no injury, 9 = plant death
Description: as §1

Durum line UT17 = test: Greenhouse Trial: plant injury rating, imazamox; format: in vivo, Durum wheat; details: 0-9 scale, 0 = no injury, 9 = plant death
Description: as §1

[4] = system: Wild Type Line UT (durum); test: Greenhouse Trial: plant injury rating, imazamox; format: in vivo, Durum wheat; details: for Average plant injury rating: Wild Type Line UT, 0-9 scale, 0 = no injury, 9 = plant death
Description: as §1

Durum line UT19 = test: Greenhouse Trial: plant injury rating, imazamox; format: in vivo, Durum wheat; details: 0-9 scale, 0 = no injury, 9 = plant death
Description: as §1

[5] = system: Durum wheat M3:4 lines derived from M2 plant UT08; test: Field Trials (2): tolerance scores at two rates of imazamox; format: in vivo; details: UT08, range across M3:4 lines
From the text: as §2, §3

[6] = system: Durum wheat M3:4 lines derived from M2 plant UT15; test: as above; format: in vivo; details: UT15, range across M3:4 lines
From the text: as §2, §3

COCc1cnc(C2=NC(C)(C(C)C)C(=O)N2)c(C(=O)O)c1 (centres unmarked) [imazamox]
tolerance to imazamox [1]: excellent tolerance
survival of tested lines ([2]; imazamox 71 g/ha and 160 g/ha (both rates), all tested M3:4 lines): survived
tolerated rate relative to the 35 g/ha rate that kills susceptible durum wheat ([2]; lines evaluated at 71 and 160 g/ha imazamox): almost 3 times to over 4 times
AHAS activity relative to that of the control [3]: one third to one half
Average plant injury rating (Durum line UTO7; imazamox 100 g/ha, 14 DAT): 3.7
Average plant injury rating (Durum line UTO7; imazamox 100 g/ha, 21 DAT): 1.9
Average plant injury rating (Durum line UTO7; imazamox 160 g/ha, 14 DAT): 4.4
Average plant injury rating (Durum line UTO7; imazamox 160 g/ha, 21 DAT): 2.5
Average plant injury rating (Durum line UT16; imazamox 100 g/ha, 14 DAT): 5.4
Average plant injury rating (Durum line UT16; imazamox 100 g/ha, 21 DAT): 2.0
Average plant injury rating (Durum line UT16; imazamox 160 g/ha, 14 DAT): 4.9
Average plant injury rating (Durum line UT16; imazamox 160 g/ha, 21 DAT): 2.8
Average plant injury rating (Durum line UTO1; imazamox 100 g/ha, 14 DAT): 4.0
Average plant injury rating (Durum line UTO1; imazamox 100 g/ha, 21 DAT): 1.4
Average plant injury rating (Durum line UTO1; imazamox 160 g/ha, 14 DAT): 4.1
Average plant injury rating (Durum line UTO1; imazamox 160 g/ha, 21 DAT): 2.6
Average plant injury rating (Durum line UT13; imazamox 100 g/ha, 14 DAT): 4.7
Average plant injury rating (Durum line UT13; imazamox 100 g/ha, 21 DAT): 2.3
Average plant injury rating (Durum line UT13; imazamox 160 g/ha, 14 DAT): 5.8
Average plant injury rating (Durum line UT13; imazamox 160 g/ha, 21 DAT): 3.4
Average plant injury rating (Durum line C119; imazamox 100 g/ha, 14 DAT): 4.8
Average plant injury rating (Durum line C119; imazamox 100 g/ha, 21 DAT): 1.0
Average plant injury rating (Durum line C119; imazamox 160 g/ha, 14 DAT): 4.9
Average plant injury rating (Durum line C119; imazamox 160 g/ha, 21 DAT): 1.4
Average plant injury rating (Durum line UTO8; imazamox 100 g/ha, 14 DAT): 4.5
Average plant injury rating (Durum line UTO8; imazamox 100 g/ha, 21 DAT): 1.9
Average plant injury rating (Durum line UTO8; imazamox 160 g/ha, 14 DAT): 5.5
Average plant injury rating (Durum line UTO8; imazamox 160 g/ha, 21 DAT): 3.0
Average plant injury rating (Durum line UT10; imazamox 100 g/ha, 14 DAT): 5.8
Average plant injury rating (Durum line UT10; imazamox 100 g/ha, 21 DAT): 4.3
Average plant injury rating (Durum line UT10; imazamox 160 g/ha, 14 DAT): 6.5
Average plant injury rating (Durum line UT10; imazamox 160 g/ha, 21 DAT): 5.1
Average plant injury rating (Durum line UT20; imazamox 100 g/ha, 14 DAT): 5.0
Average plant injury rating (Durum line UT20; imazamox 100 g/ha, 21 DAT): 2.1
Average plant injury rating (Durum line UT20; imazamox 160 g/ha, 14 DAT): 5.3
Average plant injury rating (Durum line UT20; imazamox 160 g/ha, 21 DAT): 2.5
Average plant injury rating (Durum line UTO5; imazamox 100 g/ha, 14 DAT): 3.0
Average plant injury rating (Durum line UTO5; imazamox 100 g/ha, 21 DAT): 1.3
Average plant injury rating (Durum line UTO5; imazamox 160 g/ha, 14 DAT): 3.3
Average plant injury rating (Durum line UTO5; imazamox 160 g/ha, 21 DAT): 1.8
Average plant injury rating (Durum line UTO3; imazamox 100 g/ha, 14 DAT): 4.8
Average plant injury rating (Durum line UTO3; imazamox 100 g/ha, 21 DAT): 2.2
Average plant injury rating (Durum line UTO3; imazamox 160 g/ha, 14 DAT): 5.2
Average plant injury rating (Durum line UTO3; imazamox 160 g/ha, 21 DAT): 2.8
Average plant injury rating (Durum line UT14; imazamox 100 g/ha, 14 DAT): 3.1
Average plant injury rating (Durum line UT14; imazamox 100 g/ha, 21 DAT): 1.7
Average plant injury rating (Durum line UT14; imazamox 160 g/ha, 14 DAT): 4.8
Average plant injury rating (Durum line UT14; imazamox 160 g/ha, 21 DAT): 3.5
Average plant injury rating (Durum line UT15; imazamox 100 g/ha, 14 DAT): 4.3
Average plant injury rating (Durum line UT15; imazamox 100 g/ha, 21 DAT): 2.7
Average plant injury rating (Durum line UT15; imazamox 160 g/ha, 14 DAT): 4.6
Average plant injury rating (Durum line UT15; imazamox 160 g/ha, 21 DAT): 3.0
Average plant injury rating (Durum line UT17; imazamox 100 g/ha, 14 DAT): 4.1
Average plant injury rating (Durum line UT17; imazamox 100 g/ha, 21 DAT): 2.5
Average plant injury rating (Durum line UT17; imazamox 160 g/ha, 14 DAT): 4.7
Average plant injury rating (Durum line UT17; imazamox 160 g/ha, 21 DAT): 3.1
Average plant injury rating ([4]; imazamox 100 g/ha, 14 DAT): 8.9
Average plant injury rating ([4]; imazamox 100 g/ha, 21 DAT): 9.0
Average plant injury rating ([4]; imazamox 160 g/ha, 14 DAT): 9.0
Average plant injury rating ([4]; imazamox 160 g/ha, 21 DAT): 9.0
survival of wild type plants ([4]; imazamox 100 and 160 g/ha, by 21 days after treatment): killed
Average plant injury rating (Durum line UT19; imazamox 100 g/ha, 14 DAT): 3.3
Average plant injury rating (Durum line UT19; imazamox 100 g/ha, 21 DAT): 1.1
Average plant injury rating (Durum line UT19; imazamox 160 g/ha, 14 DAT): 3.6
Average plant injury rating (Durum line UT19; imazamox 160 g/ha, 21 DAT): 1.7
% Chlorosis ([5]; imazamox 71 g/ha, 14 DAT): 0-10%
% Height Reduction ([5]; imazamox 71 g/ha, 14 DAT): 0-10%
% Chlorosis ([5]; imazamox 71 g/ha, 30 DAT): 0-10%
% Height Reduction ([5]; imazamox 71 g/ha, 30 DAT): 0-10%
% Chlorosis ([5]; imazamox 160 g/ha, 14 DAT): 0-10%
% Height Reduction ([5]; imazamox 160 g/ha, 14 DAT): 0-10%
% Chlorosis ([5]; imazamox 160 g/ha, 30 DAT): 0-15%
% Chlorosis ([6]; imazamox 71 g/ha, 14 DAT): 30-70%
% Height Reduction ([6]; imazamox 71 g/ha, 14 DAT): 0-10%
% Chlorosis ([6]; imazamox 71 g/ha, 30 DAT): 0-10%
% Height Reduction ([6]; imazamox 71 g/ha, 30 DAT): 5-20%
% Chlorosis ([6]; imazamox 160 g/ha, 14 DAT): 30-70%
% Height Reduction ([6]; imazamox 160 g/ha, 14 DAT): 0-10%
% Chlorosis ([6]; imazamox 160 g/ha, 30 DAT): 0-15%
% Height Reduction ([6]; imazamox 160 g/ha, 30 DAT): 5-30%

— patent US20160376605A1, “WHEAT PLANTS HAVING INCREASED TOLERANCE TO IMIDAZOLINONE HERBICIDES” (BASF SE, priority 2003, published 2016)
